We go through 2 compounds from patent publication US20220288213A1, “INSULIN ANALOGUES WITH GLUCOSE REGULATED CONFORMATIONAL SWITCH” (Thermalin Inc., priority 2019, published 2022).

Test [1] is described as follows: Alizarin Red S (ARS) competitive assay, glucose as competitor. Format: binding. Here is the method:
Stock solutions of test compounds, competitor (polyols, i.e., fructose and glucose), and Alizarin Red S (ARS) were dissolved in 0.1 mM Sodium Phosphate, pH 7.4. In a 96-well plate, stock solutions were combined to final concentrations of 20 μm ARS, 0.1 mM test compound, and varying competitor concentrations (0, 5, 10, 15, and/or 25 mM). Final solution (75 μL) was added to each plate well. Fluorescence data was acquired on Molecular Devices SpectraMax M2 with excitation at 456 nm and emission at 600 nm. In this assay, the selectivity of synthesized constructs for glucose was determined using the ARS competitive assay. Test articles were incubated with ARS and competitors (i.e. glucose and fructose) were added at varying concentrations. ARS fluorescence increases when the molecule interacts with boronic acids. The fluorescence was measured after the addition of the competitor. A decrease in fluorescence indicates the displacement of the ARS molecule by the sensor. All data were normalized to the fluorescence of an untreated solution (ARS bound to the sensing unit). […] This was not observed when FPBA was incubated with glucose. […] These are peptides modified to include glucose sensors at the lysyl residue. DA-Z4 is an L-diaminopropionic acid modified to include two benzoxoxaboroles. DA-Z16 is an D-diaminobutyric acid modified to include two benzoxaboroles. […]

The nature of test [2]: Alizarin Red S (ARS) competitive assay, fructose as competitor. In kind it is binding. The settings on record: 20 μm ARS, 0.1 mM test compound, competitor 0-25 mM, pH 7.4; a decrease means ARS is displaced. Here is the method: Stock solutions of test compounds, competitor (polyols, i.e., fructose and glucose), and Alizarin Red S (ARS) were dissolved in 0.1 mM Sodium Phosphate, pH 7.4. In a 96-well plate, stock solutions were combined to final concentrations of 20 μm ARS, 0.1 mM test compound, and varying competitor concentrations (0, 5, 10, 15, and/or 25 mM). Final solution (75 μL) was added to each plate well. Fluorescence data was acquired on Molecular Devices SpectraMax M2 with excitation at 456 nm and emission at 600 nm.
In this assay, the selectivity of synthesized constructs for glucose was determined using the ARS competitive assay. Test articles were incubated with ARS and competitors (i.e. glucose and fructose) were added at varying concentrations. ARS fluorescence increases when the molecule interacts with boronic acids. The fluorescence was measured after the addition of the competitor. A decrease in fluorescence indicates the displacement of the ARS molecule by the sensor. All data were normalized to the fluorescence of an untreated solution (ARS bound to the sensing unit). […] This was not observed when FPBA was incubated with glucose. […] These are peptides modified to include glucose sensors at the lysyl residue. DA-Z4 is an L-diaminopropionic acid modified to include two benzoxoxaboroles. DA-Z16 is an D-diaminobutyric acid modified to include two benzoxaboroles. […]

For `O=C(NC[C@H](NC(=O)c1ccc2c(c1)B(O)OC2)C(=O)O)c1ccc2c(c1)B(O)OC2` [DA-Z4, (S)-2,3-bis(1-hydroxy-1,3-dihydrobenzo[c][1,2]oxaborole-6-carboxamido)propanoic acid], the “binding to glucose compared to monoboronic acids such as FPBA and FPBA KB28 PB29” value in test [1] (ARS data) is “stronger binding to glucose”. As to fluoro-phenylboronic acid [FPBA], the “ARS fluorescence signal when treated with fructose” value in test [2] is recorded as “fluorescence signal decreases”. Further, the “ARS fluorescence signal decrease when incubated with glucose” value in test [1] (20 μm ARS, 0.1 mM test compound, competitor 0-25 mM, pH 7.4) was “not observed”.
